The values below come from US8987324B2, “Use of simalikalactone E as an anticancer agent” (Institut de Recherche pour le Developpement, priority 2011, dated 2015).

For data set [1] the following is noted: mice, orally for 4 days; cited from earlier work.
The next data set relates to A375 melanoma cells. The data set is described as follows: XTT cell viability, A375 melanoma cells. Format: cell-based. As to conditions: 48 hours; A375 carry B-raf V600E, MeWo do not. The protocol:
(§1) B1-1. XTT Cell Viability Measurement
(§2) This test measures the activity of mitochondrial succinate dehydrogenase, which represents an index of cell viability. This enzyme converts XTT into orange formazan. On day 0, the K562-Ima-S (sensitive to Ima), K562-Ima-R (resistant to Ima), A375 or MeWo cells are seeded at 15 000 cells/well (100 μl) in 96-well microplates and stimulated with increasing concentrations of Simalikalactone E [50-500 nM]. After 24 or 48 hours, 50 μl of tetrazolium (XTT reagent) are added to each well and the optical density at 490 nm is read every 30 minutes for 2 to 4 hours. The values obtained, which are an index of mitochondrial metabolism, make it possible to evaluate the percentage of live cells. Each condition is systematically carried out in triplicate.
A375 and MeWo melanoma cells are then treated in the presence of increasing doses of Simalikalactone E. 48 hours later, the cells are subjected to an XTT test. The A375 cells carry the V600E mutation on the B-raf oncogene, which is reflected by constitutive activation of the Erk pathway.
In general terms: Tetrazolium dyes change colour on reduction, which living cells bring about.

The subject of a further data set is certain cell lines. To be noted: cited from earlier work.
Data set [2] deals with Plasmodium vinckei petteri. As to conditions: murine model of malaria, cited from earlier work.
Data set [3] relates to Rafl-dependent Erk1/2 (MAP kinase) phosphorylation. The data set is described as follows: Rafl-dependent Erk1/2 phosphorylation in inducible HEK-Rafl-ER cells. It is filed as cell-based. To be noted: 30 minutes preincubation, then 1 μM tamoxifen for 1 hour. The procedure: In the experiment presented in FIG. 6B, inducible HEK-Rafl-ER cells were used. These cells express the Raf kinase under the control of the estrogen receptor. The expression of Raf can therefore be induced in the presence of tamoxifen. The cells are preincubated for 30 minutes with increasing doses of Simalikalactone E or U0126, and then treated with 1 μM of tamoxifen for 1 hour. The cells are then lyzed and protein extracts are prepared for western blot analysis. The membranes are finally incubated in the presence of the various antibodies (p-Erk1/2, Erk1/2 and HSP60). Simalikalactone E and U0126 inhibit Rafl-dependent Erk1/2 (MAP kinase) phosphorylation.

The subject of data set [4] is K562-Ima-S leukemia cell line. The data set is described as follows: XTT cell viability, K562-Ima-S. Format: cell-based. As to conditions: 48 hours. The procedure:
as §1, §2
(§3) The K562-Ima-S and K562-Ima-R tumor lines are incubated for 48 hours with increasing concentrations of Simalikalactone E (0, 100 or 250 nM) in the absence or in the presence of a maximally effective concentration (50 μM) of z-Vad-fmk (Zvad), which is a pan-caspase inhibitor (apoptosis inhibitor).

Data set [5] deals with CD34+ Bcr-Abl+ primary cells from patients suffering from CML. The data set is described as follows: XTT viability of CD34+ human primary cells from CML patients. To be noted: 48 hours. It is filed as cell-based. The protocol:
The primary cells from patients suffering from CML (purified CD34+Bcr-Abl+) are incubated in the presence of variable concentrations of Simalikalactone E for 48 hours, and then the cell viability is quantified using an XTT colorimetric test. Imatinib (Ima) is used as a positive control for the induction of death of the Bcr-Abl+ cells.

Another data set relates to Vero mammalian cells. To be noted: cited from earlier work.
Data set [6] relates to Erk1/2 kinase (MAP kinase) phosphorylation. The data set is described as follows: Western blot of death markers and Erk1/2 phosphorylation, K562-Ima-R. As to conditions: 250 nM. It is filed as cell-based. The protocol:
(§4) The characterization of the type of cell death involved in the effect of Simalikalactone E is carried out according to the following protocols: • apoptosis (type I cell death) is studied by assaying caspase activity, caspases being cysteine proteases involved in this type of process. The apoptosis is also quantified by annexin V/propidium iodide co-labeling, the cells which externalize the annexin V at the level of their […] being cells undergoing apoptosis, • autophagic death (type II cell death) is analyzed by assaying cathepsin activity, these proteases being, for their part, involved in the degradation of the intracellular material included in vesicles (autophagolysosomes). […] B1-4. Xenografts of K562-Luc Cells on Nude Mice
(§5) The K562-Ima-S (A) and K562-Ima-R (B) cells are treated for variable periods of time with 250 nM of Simalikalactone E. The cells are then lyzed and protein extracts are prepared for western blot analysis. Finally, the membranes are incubated in the presence of the various anti-PARP, LC3b, p-Erk1/2, Erk1/2 and HSP60 antibodies.
On the technique in general: In western blotting, separated proteins are transferred to a membrane and probed.

Data set [7] concerns gametocyte forms of Plasmodium falciparum. As to conditions: compared with primaquine, reference molecule; cited from earlier work.
Another data set deals with K562 cells. The data set is described as follows: Clonogenic capacity of K562 cells. Format: cell-based. To be noted: SkE 100, 250 or 500 nM versus 1 μM imatinib, 7 to 10 days. The procedure:
B1-2. Evaluation of the Clonogenic Capacity of K562 Cells
Aliquots of methylcellulose (40% Methocult®, 1% L-glutamine, 5% FCS (fetal calf serum) and 54% IMDM (Iscove's modified Dulbecco's medium)) are heated for 1 h at 37° C. 400 μl of RPMI (Roswell Park Memorial Institute medium), 5% of FCS containing the treatment (1 μM imatinib, 100, 250 or 500 nM SkE), and then 10^3 K562 cells in 200 μl of medium are added to each aliquot. For each condition, 500 μl of the suspension obtained are then deposited in 3 wells of a 24-well plate. A nontreated condition serves as a control. The plates are incubated at 37° C. for 7 to 10 days. 75 μl of MTT tetrazolium salt (Roche) (2.5 mg/ml) are added to each well. The MTT tetrazolium salt is cleaved into purple-colored formazan crystals by the metabolically active cells. After incubation for 4 h at 37° C., the wells are photographed and the clones are quantified using the Image J program.

For data set [8], the system named is K562-Ima-R leukemia cell line. The data set is described as follows: XTT cell viability, K562-Ima-R. To be noted: 48 hours. It is filed as cell-based. The protocol:
as §1, §2, §3

For data set [9], the system named is Erk1/2 kinase (MAP kinase) phosphorylation. The data set is described as follows: Western blot of death markers and Erk1/2 phosphorylation, K562-Ima-S. It is filed as cell-based. The protocol:
as §4, §5
K562-Ima-S cells are then treated for 1 hour in the presence of 250 nM of Simalikalactone E or 10 μM of U0126 (specific inhibitor of MEK1/2, the kinase responsible for Erk1/2 (MAP kinase) phosphorylation and activation). The cells are then lyzed and protein extracts are prepared for western blot analysis. The membranes are then incubated in the presence of the p-Erk1/2, Erk1/2 and HSP60 antibodies.

pEC50, pIC50: −log10 of the molar value. Like-named read-outs stand apart in the source and are kept apart here.

For `CCC(C)C(=O)O[C@@H]1[C@H]2C(C)=CC(=O)[C@@H](O)[C@]2(C)[C@H]2[C@@H](O)[C@H](O)[C@@]3(C)OC[C@@]24[C@@H]1OC(=O)[C@H](OC(=O)C(C)CC)[C@@H]34` (some centres unmarked) [Simalikalactone E], the dose tolerated in data set [1] was 1 mg/kg/day. Further, in the data set on A375 melanoma cells, the “sensitivity in XTT test compared with MeWo cells” value is “much more sensitive”. Besides, the cytotoxic action result with certain cell lines is recorded as “moderate”. The “dose inhibiting 50% of the growth of Plasmodium vinckei petteri” value in data set [2] (intraperitoneally) is reported as 0.5 mg/kg/day; in data set [2] (orally), 1 mg/kg/day. The “Rafl-dependent Erk1/2 (MAP kinase) phosphorylation” value in [3] is reported as “inhibit”. Moreover, the “effect on viability in the presence of caspase inhibitor z-Vad-fmk” value in data set [4] (50 μM z-Vad-fmk) and in [8] (50 μM z-Vad-fmk) was “not modified” throughout. The “sensitivity (growth and viability)” value in data set [4] (100 or 250 nM) and in [8] (100 or 250 nM) was “sensitive” throughout. The “inhibition of cell metabolism compared with imatinib” value in data set [5] (500 nM) was “as effective as imatinib”. Further, the pEC50 in data set [5] (Homo sapiens, read-out: dose giving the half-maximum effect) was 7.00. Besides, the selectivity index entry with Vero mammalian cells (Vero cells versus Plasmodium falciparum) is “greater than 100”. Further, in the data set on Vero mammalian cells (read-out: dose inhibiting 50% of the growth of Vero mammalian cells), the pIC50 is 5.18. Further, the “apoptosis marker (PARP cleavage)” value in data set [6] and in data set [9] (250 nM) was “no cleavage of PARP” throughout. Moreover, the “autophagy marker (LC3 conversion)” value in data set [6] and in data set [9] (250 nM) was “no modification of LC3” in each case. For the same molecule, the “Erk1/2 kinase (MAP kinase) phosphorylation” value in [6] (variable periods of time, imatinib-resistant cells) was “inhibits”; in data set [9] (250 nM, variable periods of time, imatinib-sensitive cells), “inhibits”. The “concentration reducing the gametocyte level by 50%, relative to primaquine” value in data set [7] is recorded as “seven times lower”. The “inhibition of clonogenic capacity” value with K562 cells is given as “as effectively as imatinib”. In addition, the “concentration of U0126 relative to Simalikalactone E for equal effect (times higher)” value in data set [9] (250 nM SkE versus 10 μM U0126) is 40. In addition, the “inhibition of Erk1/2 phosphorylation compared with U0126” value in data set [9] (250 nM SkE versus 10 μM U0126, 1 hour) is “as effective as U0126”.
`N#CC(=C(/N)Sc1ccccc1N)/C(C#N)=C(\N)Sc1ccccc1N` [U0126, reference compound]: the “Rafl-dependent Erk1/2 (MAP kinase) phosphorylation” value in data set [3] is listed as “inhibit”.
For `CCN(CC)CCCC(C)Nc1ccnc2cc(Cl)ccc12` (centres unmarked) [chloroquine, reference compound], the “dose inhibiting 50% of the growth of Plasmodium vinckei petteri” value in data set [2] (intraperitoneally) was 3 mg/kg/day.
